Source: patent US8685456B2, “Topical compositions comprising nanoparticles of an isoflavone” (DSM IP Assets B.V., priority 2005, dated 2014)

Columns and labels:
[1] = Genistein particle size by laser diffraction technique (Mastersizer 2000); assay type: physicochemical
[2] = “swing” test (changing temperature test, 5° C./43° C.), microscopical examination; assay type: physicochemical; details: O/W emulsions with genistein of example 7 after dry grinding in a Jet mill only (FIG. 7), 0.3%, 0.5% and 0.1% (1.0% elsewhere in the source); ten sequences 5° C./43° C., 24 hours each
Procedure: To further illustrate the benefits obtained with nanoparticles of genistein versus conventional crystalline genistein, the cosmetic formulations described above (#3 and #4) were submitted to a very challenging stability test: The formulations were stored at a temperature varying from 5° C. to 43° C. every 24 hours during 3 weeks. […] (cycles of 24 hours at each temperature).
To force the crystallization in a disperse system, a test was used in which the temperature is changed over a self-defined timeframe and in self-defined sequences. The test is called “swing” test (changing temperature test). The purpose of this test is to dissolve small particles at the higher temperature and to force re-crystallization at lower temperature. […] The following formulations were used for the “swing” test: […]
To force this crystallization the “swing” test was used and as minimum and maximum temperatures 5° C. and 43° C. were chosen. Each temperature was held over a period of 24 hours. The duration of this test was at first set to 20 days, which means that the samples run through a cooling/heating sequence (=1 sequence) 10 times.
FIGS. 5 to 7 show the results of the “swing” test. […] The following genistein samples and concentrations were employed and the emulsions were measured immediately after preparation and after subjecting the samples to ten sequences of the “swing” test: […]

[3] = Example 1, after homogenization (42 passes) and spray-drying, re-dispersed in water
[4] = Example 1, after homogenization (42 passes, 1500 bar) with starch sodium octenyl succinate, aqueous suspension
[5] = Example 1, genistein powder before homogenization
[6] = Example 2, after homogenization (40 passes, 1500 bar) in water, no carrier
[7] = Example 2, after homogenization (42 passes) and spray-drying, re-dispersed in water
[8] = Example 2, after homogenization (42 passes), starch sodium octenyl succinate added after 40th pass
[9] = Example 2, genistein powder before homogenization
[10] = Example 3, after homogenization (40 passes, 1500 bar) in water, no carrier
[11] = Example 3, after homogenization (42 passes) and spray-drying, re-dispersed in water
[12] = Example 3, after homogenization (42 passes), starch sodium octenyl succinate added after 40th pass
[13] = Example 3, genistein powder before homogenization
[14] = Example 4, after homogenization (20 passes, 700 bar) in water, no carrier
[15] = Example 4, genistein powder before homogenization
[16] = Example 5, Table XI, headed after homogenization (42 passes) and spray-drying, maltodextrin added after 40th pass, suspension before drying
[17] = Example 5, Table XII, after homogenization (42 passes) and spray-drying, maltodextrin carrier, re-dispersed in water
[18] = Example 5, after homogenization (20 passes) as headed, text: 40 times, 1500 bar, in water, no carrier
[19] = Example 5, genistein powder before homogenization
[20] = Example 6, after homogenization (11 passages) in agitated bead mill with starch sodium octenyl succinate
[21] = Example 6, genistein powder before homogenization
[22] = Example 7, Table XIV, before milling and homogenization
[23] = Example 7, Table XV, before milling and homogenization
[24] = Example 7, after milling (Jet mill) and homogenization (12 times, 700 bar) with starch sodium octenyl succinate
[25] = Example 7, after milling, homogenization and spray drying

Structure (SMILES): O=c1c(-c2ccc(O)cc2)coc2cc(O)cc(O)c12 [Genistein, 4′,5,7-trihydroxyisoflavone]
- Average particle size D[3, 2] [1, 3]: 0.14 microns
- Average particle size D[4, 3] [1, 3]: 0.83 microns
- D (v, 0.1) [1, 3]: 0.07 microns
- D (v, 0.5) [1, 3]: 0.16 microns
- D (v, 0.9) [1, 3]: 2.86 microns
- Average particle size D[3, 2] [1, 4]: 0.15 microns
- Average particle size D[4, 3] [1, 4]: 0.97 microns
- D (v, 0.1) [1, 4]: 0.07 microns
- D (v, 0.5) [1, 4]: 0.17 microns
- D (v, 0.9) [1, 4]: 3.65 microns
- Average particle size D[3, 2] [1, 5]: 23.1 microns
- Average particle size D[4, 3] [1, 5]: 48.5 microns
- D (v, 0.1) [1, 5]: 17.1 microns
- D (v, 0.5) [1, 5]: 41.9 microns
- D (v, 0.9) [1, 5]: 91.0 microns
- Average particle size D[3, 2] [1, 6]: 0.14 microns
- Average particle size D[4, 3] [1, 6]: 0.76 microns
- D (v, 0.1) [1, 6]: 0.07 microns
- D (v, 0.5) [1, 6]: 0.16 microns
- D (v, 0.9) [1, 6]: 2.42 microns
- Average particle size D[3, 2] [1, 7]: 0.14 microns
- Average particle size D[4, 3] [1, 7]: 0.55 microns
- D (v, 0.1) [1, 7]: 0.07 microns
- D (v, 0.5) [1, 7]: 0.15 microns
- D (v, 0.9) [1, 7]: 1.14 microns
- Average particle size D[3, 2] [1, 8]: 0.14 microns
- Average particle size D[4, 3] [1, 8]: 0.41 microns
- D (v, 0.1) [1, 8]: 0.07 microns
- D (v, 0.5) [1, 8]: 0.16 microns
- D (v, 0.9) [1, 8]: 0.93 microns
- Average particle size D[3, 2] [1, 9]: 23.1 microns
- Average particle size D[4, 3] [1, 9]: 48.5 microns
- D (v, 0.1) [1, 9]: 17.1 microns
- D (v, 0.5) [1, 9]: 41.9 microns
- D (v, 0.9) [1, 9]: 91.0 microns
- Average particle size D[3, 2] [1, 10]: 0.14 microns
- Average particle size D[4, 3] [1, 10]: 0.76 microns
- D (v, 0.1) [1, 10]: 0.07 microns
- D (v, 0.5) [1, 10]: 0.16 microns
- D (v, 0.9) [1, 10]: 2.00 microns
- Average particle size D[4, 3] [1, 11]: 0.43 microns
- D (v, 0.1) [1, 11]: 0.07 microns
- D (v, 0.5) [1, 11]: 0.16 microns
- D (v, 0.9) [1, 11]: 0.97 microns
- Average particle size D[3, 2] [1, 12]: 0.14 microns
- Average particle size D[4, 3] [1, 12]: 0.40 microns
- D (v, 0.1) [1, 12]: 0.07 microns
- D (v, 0.5) [1, 12]: 0.16 microns
- D (v, 0.9) [1, 12]: 0.91 microns
- Average particle size D[3, 2] [1, 13]: 23.1 microns
- Average particle size D[4, 3] [1, 13]: 48.5 microns
- D (v, 0.1) [1, 13]: 17.1 microns
- D (v, 0.5) [1, 13]: 41.9 microns
- D (v, 0.9) [1, 13]: 91.0 microns
- Average particle size D[3, 2] [1, 14]: 0.13 microns
- Average particle size D[4, 3] [1, 14]: 0.83 microns
- D (v, 0.1) [1, 14]: 0.07 microns
- D (v, 0.5) [1, 14]: 0.15 microns
- D (v, 0.9) [1, 14]: 2.62 microns
- Average particle size D[3, 2] [1, 15]: 23.1 microns
- Average particle size D[4, 3] [1, 15]: 48.5 microns
- D (v, 0.1) [1, 15]: 17.1 microns
- D (v, 0.5) [1, 15]: 41.9 microns
- D (v, 0.9) [1, 15]: 91.0 microns
- Average particle size D[3, 2] [1, 16]: 0.14 microns
- Average particle size D[4, 3] [1, 16]: 0.41 microns
- D (v, 0.1) [1, 16]: 0.07 microns
- D (v, 0.5) [1, 16]: 0.16 microns
- D (v, 0.9) [1, 16]: 0.93 microns
- Average particle size D[3, 2] [1, 17]: 0.13 microns
- Average particle size D[4, 3] [1, 17]: 0.41 microns
- D (v, 0.1) [1, 17]: 0.07 microns
- D (v, 0.5) [1, 17]: 0.15 microns
- D (v, 0.9) [1, 17]: 0.93 microns
- Average particle size D[2, 3] [1, 18]: 0.14 microns
- Average particle size D[4, 3] [1, 18]: 0.42 microns
- D (v, 0.1) [1, 18]: 0.07 microns
- D (v, 0.5) [1, 18]: 0.16 microns
- D (v, 0.9) [1, 18]: 0.92 microns
- Average particle size D[2, 3] [1, 19]: 23.1 microns
- Average particle size D[4, 3] [1, 19]: 48.5 microns
- D (v, 0.1) [1, 19]: 17.8 microns
- D (v, 0.5) [1, 19]: 41.4 microns
- D (v, 0.9) [1, 19]: 90.2 microns
- Average particle size D[4, 3] [1, 20]: 0.23 microns
- D (v, 0.1) [1, 20]: 0.07 microns
- D (v, 0.5) [1, 20]: 0.16 microns
- D (v, 0.9) [1, 20]: 0.45 microns
- Average particle size D[4, 3] [1, 21]: 48.5 microns
- D (v, 0.1) [1, 21]: 17.8 microns
- D (v, 0.5) [1, 21]: 41.4 microns
- D (v, 0.9) [1, 21]: 90.2 microns
- Average particle size D[4, 3] [1, 22]: 48.5 microns
- D (v, 0.1) [1, 22]: 17.8 microns
- D (v, 0.5) [1, 22]: 41.4 microns
- D (v, 0.9) [1, 22]: 90.2 microns
- Average particle size D[4, 3] [1, 23]: 48.5 microns
- D (v, 0.1) [1, 23]: 17.8 microns
- D (v, 0.5) [1, 23]: 41.4 microns
- D (v, 0.9) [1, 23]: 90.2 microns
- Average particle size D[4, 3] [1, 24]: 0.53 microns
- D (v, 0.1) [1, 24]: 0.07 microns
- D (v, 0.5) [1, 24]: 0.18 microns
- D (v, 0.9) [1, 24]: 1.38 microns
- Average particle size D[4, 3] [1, 25]: 0.65 microns
- D (v, 0.1) [1, 25]: 0.08 microns
- D (v, 0.5) [1, 25]: 0.19 microns
- D (v, 0.9) [1, 25]: 1.84 microns
- Average particle size D[2, 3] ([1]; after homogenization (42 passes) and spray-drying, re-dispersed in water): 0.14 microns
- Change of particle size during the “swing” test [2]: significantly changed
